Data taken from article PMC7914897, “Cytotoxic Potential of a-Azepano- and 3-Amino-3,4-SeCo-Triterpenoids” (International Journal of Molecular Sciences, 2021).
Like-named read-outs stand apart in the source and are kept apart here.

Tests used:
Renal Cancer subpanel = assay: NCI-60 screen, subpanel; conditions: Homo sapiens
[1] = tested on: MDA-MB-31/ATCC (Breast cancer); assay: NCI-60 screen (SRB, 48 h); conditions: Homo sapiens
UACC-257 (Melanoma) = assay: NCI-60 screen (SRB, 48 h); conditions: Homo sapiens
HCC-2998 (Colon cancer) = assay: NCI-60 screen (SRB, 48 h); conditions: Homo sapiens
SF-268 (CNS cancer) = assay: NCI-60 screen (SRB, 48 h); conditions: Homo sapiens
OVCAR-3 (Ovarian cancer) = assay: cells; conditions: Homo sapiens
[2] = tested on: panel of approximately 60 cancer cell lines; assay: NCI-60 screen (SRB, 48 h), full panel
TK-10 (Renal cancer) = assay: NCI-60 screen (SRB, 48 h); conditions: Homo sapiens
Leukemia subpanel = assay: cells; conditions: Homo sapiens
HS 578T (Breast cancer) = assay: NCI-60 screen (SRB, 48 h); conditions: Homo sapiens
DU-145 (Prostate cancer) = assay: NCI-60 screen (SRB, 48 h); conditions: Homo sapiens
COLO 205 (Colon cancer) = assay: NCI-60 screen (SRB, 48 h)
OVCAR-8 (Ovarian cancer) = assay: NCI-60 screen (SRB, 48 h); conditions: Homo sapiens
SNB-19 (CNS cancer) = assay: NCI-60 screen (SRB, 48 h); conditions: Homo sapiens
CAKI-1 (Renal cancer) = assay: NCI-60 screen (SRB, 48 h); conditions: Homo sapiens
[3] = tested on: NCI-H322M (NSC lung cancer); assay: NCI-60 screen (SRB, 48 h); conditions: Homo sapiens
SK-MEL-5 (Melanoma) = assay: NCI-60 screen (SRB, 48 h); conditions: Homo sapiens
HCT-15 (Colon cancer) = assay: NCI-60 screen (SRB, 48 h); conditions: Homo sapiens
UACC-62 (Melanoma) = assay: NCI-60 screen (SRB, 48 h); conditions: Homo sapiens
PC-3 (Prostate cancer) = assay: NCI-60 screen (SRB, 48 h); conditions: Homo sapiens
HOP-62 (NSC lung cancer) = assay: NCI-60 screen (SRB, 48 h); conditions: Homo sapiens
[4] = tested on: NCI-H23 (NSC lung cancer); assay: NCI-60 screen (SRB, 48 h); conditions: Homo sapiens
[5] = tested on: NCI-H522 (NSC lung cancer); assay: NCI-60 screen (SRB, 48 h); conditions: Homo sapiens
[6] = tested on: A549/ATCC (NSC lung cancer); assay: NCI-60 screen (SRB, 48 h); conditions: Homo sapiens
[7] = tested on: NCI-H226 (NSC lung cancer); assay: NCI-60 screen (SRB, 48 h); conditions: Homo sapiens
OVCAR-5 (Ovarian cancer) = assay: NCI-60 screen (SRB, 48 h); conditions: Homo sapiens

## CC1(C)CC[C@]2(CO)CC[C@]3(C)C(=CC[C@@H]4[C@@]5(C)CCCNC(C)(C)[C@@H]5CC[C@]43C)[C@@H]2C1 [Compound 3, azepanoerythrodiol]
Renal Cancer subpanel; 48 h, read-out: TGI MG_MID
  IC (TGI): 17.4 µM
Renal Cancer subpanel; read-out: GI50 MG_MID
  GI50: 5.94 µM
Renal Cancer subpanel; read-out: LC50 MG_MID
  CC50: 49.7 µM
[1]
  GI50: 3.5 µM
[1]; 48 h, read-out: TGI
  IC (TGI): 13 µM
[1]; read-out: LC50
  CC50: 45.6 µM
UACC-257 (Melanoma); UACC-257
  GI50: 2490 nM
UACC-257 (Melanoma); UACC-257, 48 h, read-out: TGI
  IC (TGI): 6.47 µM
UACC-257 (Melanoma); UACC-257, read-out: LC50
  CC50: 27.6 µM
HCC-2998 (Colon cancer); HCC 2998
  GI50: 1890 nM
HCC-2998 (Colon cancer); HCC 2998, 48 h, read-out: TGI
  IC (TGI): 3.81 µM
HCC-2998 (Colon cancer); HCC 2998, read-out: LC50
  CC50: 7.69 µM
SF-268 (CNS cancer); SF-268
  GI50: 2900 nM
SF-268 (CNS cancer); SF-268, 48 h, read-out: TGI
  IC (TGI): 9.77 µM
SF-268 (CNS cancer); SF-268, read-out: LC50
  CC50: 65.6 µM
OVCAR-3 (Ovarian cancer); OVCAR-3
  GI50: 1960 nM
OVCAR-3 (Ovarian cancer); OVCAR-3, 48 h, read-out: TGI
  IC (TGI): 3.84 µM
OVCAR-3 (Ovarian cancer); OVCAR-3, read-out: LC50
  CC50: 7.52 µM
[2]; 1 dose 10 µM
  Positive Cytostatic Effect (cell lines with percent growth 0 to 50 / total): 20/57
  Positive Cytotoxic Effect (cell lines with percent growth < 0 / total): 19/57
  number of cancer cell lines the compound was active against: 30 cell lines
[2]; Homo sapiens, 48 h, read-out: Mean Growth, %
  activity at 10 µM: 18.9%
[2]; Homo sapiens, 48 h, read-out: Range of Growth, %
  activity at 10 µM: -88.4 to 89.3%
[2]; Homo sapiens, 48 h, read-out: TGI MG_MID60, average over all cell lines
  IC (TGI): 15.5 µM
[2]; Homo sapiens, read-out: GI50 MG_MID60
  GI50: 3.83 µM
[2]; Homo sapiens, read-out: GI50 against all human tumor cell lines
  GI50: < 10 µM
[2]; Homo sapiens, read-out: GI50 against the most sensitive cell lines
  GI50: 0.2 to 0.94 µM
[2]; Homo sapiens, read-out: LC50 MG_MID60, average over all cell lines
  CC50: 32 µM
[2]; MG_MID60/subpanel MG_MID
  selectivity indexes at TGI level (subpanels): 3.59–4.69
TK-10 (Renal cancer); TK-10
  GI50: 4.64 µM
TK-10 (Renal cancer); TK-10, 48 h, read-out: TGI
  IC (TGI): 16.7 µM
TK-10 (Renal cancer); TK-10, read-out: LC50
  CC50: 49.9 µM
Leukemia subpanel; 48 h, read-out: TGI MG_MID
  IC (TGI): 54.8 µM
Leukemia subpanel; read-out: GI50 MG_MID
  GI50: 2030 nM
Leukemia subpanel; read-out: LC50 MG_MID
  CC50: > 100 µM
HS 578T (Breast cancer)
  GI50: 6.16 µM
HS 578T (Breast cancer); 48 h, read-out: TGI
  IC (TGI): 24.7 µM
HS 578T (Breast cancer); read-out: LC50
  CC50: 77.4 µM
DU-145 (Prostate cancer); DU-145
  GI50: 2300 nM
DU-145 (Prostate cancer); DU-145, 48 h, read-out: TGI
  IC (TGI): 4.7 µM
DU-145 (Prostate cancer); DU-145, read-out: LC50
  CC50: 9.61 µM
COLO 205 (Colon cancer); COLO 205, 1 dose 10 µM
  Growth % of the Most Sensitive Cell Lines: −88.44%
COLO 205 (Colon cancer); Homo sapiens, COLO 205
  GI50: 1830 nM
COLO 205 (Colon cancer); Homo sapiens, COLO 205, 48 h, read-out: TGI
  IC (TGI): 3.25 µM
COLO 205 (Colon cancer); Homo sapiens, COLO 205, read-out: LC50
  CC50: 5.77 µM
OVCAR-8 (Ovarian cancer); OVCAR-8
  GI50: 3.83 µM
OVCAR-8 (Ovarian cancer); OVCAR-8, 48 h, read-out: TGI
  IC (TGI): 15.6 µM
OVCAR-8 (Ovarian cancer); OVCAR-8, read-out: LC50
  CC50: 54.1 µM
SNB-19 (CNS cancer); SNB-19
  GI50: 11.7 µM
SNB-19 (CNS cancer); SNB-19, 48 h, read-out: TGI
  IC (TGI): 2.61 µM
SNB-19 (CNS cancer); SNB-19, read-out: LC50
  CC50: 58.1 µM
CAKI-1 (Renal cancer); CAKI-1
  GI50: 3.05 µM
CAKI-1 (Renal cancer); CAKI-1, 48 h, read-out: TGI
  IC (TGI): 13.7 µM
CAKI-1 (Renal cancer); CAKI-1, read-out: LC50
  CC50: 53.6 µM
[3]
  GI50: 3.69 µM
[3]; 48 h, read-out: TGI
  IC (TGI): 10.3 µM
[3]; read-out: LC50
  CC50: 36 µM
SK-MEL-5 (Melanoma); SK-MEL-5
  GI50: 1680 nM
SK-MEL-5 (Melanoma); SK-MEL-5, 48 h, read-out: TGI
  IC (TGI): 3.14 µM
SK-MEL-5 (Melanoma); SK-MEL-5, read-out: LC50
  CC50: 5.86 µM
HCT-15 (Colon cancer); HCT-15
  GI50: 3.06 µM
HCT-15 (Colon cancer); HCT-15, 48 h, read-out: TGI
  IC (TGI): 1.04 µM
HCT-15 (Colon cancer); HCT-15, read-out: LC50
  CC50: 42.3 µM
UACC-62 (Melanoma); UACC-62
  GI50: 1920 nM
UACC-62 (Melanoma); UACC-62, 48 h, read-out: TGI
  IC (TGI): 3.93 µM
UACC-62 (Melanoma); UACC-62, read-out: LC50
  CC50: 8.07 µM
PC-3 (Prostate cancer); PC-3
  GI50: 1480 nM
PC-3 (Prostate cancer); PC-3, 48 h, read-out: TGI
  IC (TGI): 3.33 µM
PC-3 (Prostate cancer); PC-3, read-out: LC50
  CC50: 7.47 µM
HOP-62 (NSC lung cancer); HOP-62
  GI50: 5.89 µM
HOP-62 (NSC lung cancer); HOP-62, 48 h, read-out: TGI
  IC (TGI): 20.4 µM
HOP-62 (NSC lung cancer); HOP-62, read-out: LC50
  CC50: 58.9 µM
[4]; NCI-H23
  GI50: 1110 nM
[4]; NCI-H23, 48 h, read-out: TGI
  IC (TGI): 24.6 µM
[4]; NCI-H23, read-out: LC50
  CC50: 54.5 µM
[5]; NCI-H522
  GI50: 2040 nM
[5]; NCI-H522, 48 h, read-out: TGI
  IC (TGI): 4.19 µM
[5]; NCI-H522, read-out: LC50
  CC50: 8.59 µM
[6]; A549
  GI50: 4.62 µM
[6]; A549, 48 h, read-out: TGI
  IC (TGI): 17.8 µM
[6]; A549, read-out: LC50
  CC50: 52.4 µM
[7]; NCI-H226
  GI50: 1130 nM
[7]; NCI-H226, 48 h, read-out: TGI
  IC (TGI): 28.5 µM
[7]; NCI-H226, read-out: LC50
  CC50: 71.8 µM
OVCAR-5 (Ovarian cancer); OVCAR-5
  GI50: 11.9 µM
OVCAR-5 (Ovarian cancer); OVCAR-5, 48 h, read-out: TGI
  IC (TGI): 24.6 µM
OVCAR-5 (Ovarian cancer); OVCAR-5, read-out: LC50
  CC50: 51 µM
